Where “and” joins values, the source holds several entries; their conditions need not be identical. Equal entries are not always repeated.
Tested on: Swiss mice, Sarcoma 180 sc, mean tumor weight T/C
Test: NCI In Vivo Anticancer Drug Screen. Data for tumor model Sarcoma 180 (subcutaneous) in Swiss mice
Settings: endpoint: mean tumor weight, higher = larger tumour
Outline: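 Antitumor activity is assessed in mice with transplantable tumors. Treated (T) and vehicle control (C) groups are compared on survival or tumor size.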

[1] = dose: 50.0 mg/kg/injection, schedule: Q#A X014 (sc), vehicle: steriod suspending solution
[2] = dose: 250.0 mg/kg/injection, schedule: Q01DX007 (ip), vehicle: carboxymethylcellulose (CMC)
[3] = dose: 500.0 mg/kg/injection, schedule: Q01DX007 (ip), vehicle: carboxymethylcellulose (CMC)
[4] = dose: 125.0 mg/kg/injection, schedule: Q01DX007 (ip), vehicle: saline

`CCC(c1ccc(O)cc1)C(CC)c1ccc(OC)cc1` (stereo not drawn) was tested, and the T/C (dose: 2.0 mg/kg/injection, schedule: Q#A X014 (sc), vehicle: steriod suspending solution) was 45 % of control and 53 % of control, the T/C (dose: 2.35 mg/kg/injection, schedule: Q#A X014 (ip), vehicle: methylcellulose (MC)) was 25 % of control and the T/C (dose: 3.5 mg/kg/injection, schedule: Q#A X014 (ip), vehicle: methylcellulose (MC)) was 32 % of control. For the same compound, the T/C (dose: 5.0 mg/kg/injection, schedule: Q#A X014 (ip), vehicle: methylcellulose (MC)) was 40 % of control, the T/C (dose: 5.5 mg/kg/injection, schedule: Q#A X014 (sc), vehicle: steriod suspending solution) was 39 % of control and 52 % of control and the T/C (dose: 7.5 mg/kg/injection, schedule: Q#A X014 (ip), vehicle: methylcellulose (MC)) was 41 % of control. For the same compound, the T/C (dose: 8.5 mg/kg/injection, schedule: Q#A X014 (ip), vehicle: distilled water + alcohol) was 15 % of control, the T/C (dose: 12.5 mg/kg/injection, schedule: Q#A X014 (ip), vehicle: distilled water + alcohol) was 27 % of control and the T/C (dose: 16.5 mg/kg/injection, schedule: Q#A X014 (sc), vehicle: steriod suspending solution) was 35 % of control and 48 % of control. The T/C (dose: 18.5 mg/kg/injection, schedule: Q#A X014 (ip), vehicle: distilled water + alcohol) was 12 % of control, the T/C (dose: 27.5 mg/kg/injection, schedule: Q#A X014 (ip), vehicle: distilled water + alcohol) was 19 % of control and the T/C (dose: 27.5 mg/kg/injection, schedule: Q#A X014 (ip), vehicle: olive oil, sesame oil, peanut oil) was 49 % of control. For the same compound, the T/C (dose: 27.75 mg/kg/injection, schedule: Q#A X014 (ip), vehicle: methylcellulose (MC)) was 24 % of control and 46 % of control, the T/C (dose: 41.5 mg/kg/injection, schedule: Q#A X014 (ip), vehicle: olive oil, sesame oil, peanut oil) was 48 % of control and the T/C (dose: 41.65 mg/kg/injection, schedule: Q#A X014 (ip), vehicle: methylcellulose (MC)) was 20 % of control and 24 % of control. For the same compound, the T/C [1] was 33 % of control and 36 % of control, the T/C (dose: 62.5 mg/kg/injection, schedule: Q#A X014 (ip), vehicle: methylcellulose (MC)) was 20 % of control and 32 % of control and the T/C (dose: 62.5 mg/kg/injection, schedule: Q#A X014 (ip), vehicle: olive oil, sesame oil, peanut oil) was 69 % of control. For the same compound, the T/C (dose: 94.0 mg/kg/injection, schedule: Q#A X014 (ip), vehicle: methylcellulose (MC)) was 28 % of control and 36 % of control, the T/C (dose: 94.0 mg/kg/injection, schedule: Q#A X014 (ip), vehicle: olive oil, sesame oil, peanut oil) was 42 % of control and the T/C (dose: 150.0 mg/kg/injection, schedule: Q#A X014 (sc), vehicle: steriod suspending solution) was 29 % of control and 44 % of control.

For `COC(=O)c1ccccc1NC(c1ccccn1)c1ccc2cccnc2c1O` (stereo not drawn), the T/C (dose: 62.0 mg/kg/injection, schedule: Q01DX007 (ip), vehicle: carboxymethylcellulose (CMC)) was 115 % of control, the T/C (dose: 125.0 mg/kg/injection, schedule: Q01DX007 (ip), vehicle: carboxymethylcellulose (CMC)) was 104 % of control and the T/C [2] was 88 % of control. The T/C [3] was 88 % of control.

For `O=CN(O)CC(=O)O`, the T/C (dose: 62.5 mg/kg/injection, schedule: Q01DX007 (ip), vehicle: carboxymethylcellulose (CMC)) was 105 % of control, the T/C [2] was 83 % of control and the T/C [3] was 84 % of control. The T/C (dose: 750.0 mg/kg/injection, schedule: Q01DX007 (ip), vehicle: carboxymethylcellulose (CMC)) was 62 % of control and the T/C (dose: 1000.0 mg/kg/injection, schedule: Q01DX007 (ip), vehicle: carboxymethylcellulose (CMC)) was 61 % of control.

With `CC(=O)NC(CCC(=O)C=[N+]=N)C(=O)O` (stereo not drawn) the T/C (dose: 0.03 mg/kg/injection, schedule: Q01DX007 (ip), vehicle: water) was 62 % of control and 80 % of control, the T/C (dose: 0.05 mg/kg/injection, schedule: Q01DX007 (ip), vehicle: water) was 58 % of control and 63 % of control and the T/C (dose: 0.1 mg/kg/injection, schedule: Q01DX007 (ip), vehicle: water) was 13 % of control and 26 % of control. For the same compound, the T/C (dose: 0.2 mg/kg/injection, schedule: Q01DX007 (ip), vehicle: water) was 1 % of control.

With `CCOc1ccc2c(c1)CC[C@@H]1[C@@H]2CC[C@@]2(C)[C@H]1CC[C@]2(C)O` the T/C (dose: 0.5 mg/kg/injection, schedule: Q#A X014 (sc), vehicle: steriod suspending solution) was 92 % of control, the T/C (dose: 5.0 mg/kg/injection, schedule: Q#A X014 (sc), vehicle: steriod suspending solution) was 79 % of control and the T/C [1] was 72 % of control.

With `O=C(O)Cc1c[nH]c2ccccc12` the T/C (dose: 31.3 mg/kg/injection, schedule: Q01DX007 (ip), vehicle: saline) was 64 % of control, the T/C (dose: 62.5 mg/kg/injection, schedule: Q01DX007 (ip), vehicle: saline) was 71 % of control and the T/C [4] was 52 % of control. For the same compound, the T/C (dose: 250.0 mg/kg/injection, schedule: Q01DX007 (ip), vehicle: saline) was 95 % of control.

For `CCCCn1cnc2c(Sc3c([N+](=O)[O-])ncn3C)nc(N)nc21`, the T/C (dose: 2.75 mg/kg/injection, schedule: Q#A X014 (ip), vehicle: methylcellulose (MC)) was 95 % of control, the T/C (dose: 4.15 mg/kg/injection, schedule: Q#A X014 (ip), vehicle: methylcellulose (MC)) was 53 % of control and the T/C (dose: 6.25 mg/kg/injection, schedule: Q#A X014 (ip), vehicle: methylcellulose (MC)) was 66 % of control. The T/C (dose: 9.37 mg/kg/injection, schedule: Q#A X014 (ip), vehicle: methylcellulose (MC)) was 51 % of control.

In the case of `O=[As]O`, the T/C (dose: 1.67 mg/kg/injection, schedule: Q01DX007 (ip), vehicle: carboxymethylcellulose (CMC)) is reported as 90 % of control, the T/C (dose: 3.12 mg/kg/injection, schedule: Q#A X014 (ip), vehicle: carboxymethylcellulose (CMC)) is reported as 121 % of control and the T/C (dose: 3.33 mg/kg/injection, schedule: Q01DX007 (ip), vehicle: carboxymethylcellulose (CMC)) is reported as 78 % of control. The T/C (dose: 3.37 mg/kg/injection, schedule: Q01DX007 (ip), vehicle: carboxymethylcellulose (CMC)) was 98 % of control, the T/C (dose: 5.0 mg/kg/injection, schedule: Q01DX007 (ip), vehicle: carboxymethylcellulose (CMC)) was 66 % of control and the T/C (dose: 6.25 mg/kg/injection, schedule: Q#A X014 (ip), vehicle: carboxymethylcellulose (CMC)) was 99 % of control. The T/C (dose: 6.65 mg/kg/injection, schedule: Q01DX007 (ip), vehicle: carboxymethylcellulose (CMC)) was 85 % of control, the T/C (dose: 7.0 mg/kg/injection, schedule: Q01DX007 (ip), vehicle: carboxymethylcellulose (CMC)) was 90 % of control and the T/C (dose: 9.0 mg/kg/injection, schedule: Q01DX007 (ip), vehicle: carboxymethylcellulose (CMC)) was 83 % of control. For the same compound, the T/C (dose: 11.0 mg/kg/injection, schedule: Q01DX007 (ip), vehicle: carboxymethylcellulose (CMC)) was 64 % of control.

`C[C@]12CCC(=O)C=C1CC[C@@H]1[C@@H]2[C@@H](O)C[C@@]2(C)[C@H]1CC[C@]2(O)C(=O)COC(=O)c1ccc([N+](=O)[O-])cc1Cl` was tested, and the T/C (dose: 12.5 mg/kg/injection, schedule: Q#A X014 (sc), vehicle: steriod suspending solution) was 79 % of control, the T/C (dose: 25.0 mg/kg/injection, schedule: Q#A X014 (sc), vehicle: steriod suspending solution) was 67 % of control and the T/C [1] was 38 % of control. The T/C (dose: 100.0 mg/kg/injection, schedule: Q#A X014 (sc), vehicle: steriod suspending solution) was 32 % of control.

`CC1OC(OC2C(CO)OC(O[C@H]3CC[C@@]4(C)C(=CC[C@H]5[C@@H]6C[C@@H]7O[C@@]8(CC[C@H](C)CN8)[C@@H](C)[C@@H]7[C@@]6(C)CC[C@@H]54)C3)C(OC3OC(C)C(O)C(O)C3O)C2O)C(O)C(O)C1O` (stereo partly drawn) was tested, and the T/C (dose: 5.0 mg/kg/injection, schedule: Q01DX007 (ip), vehicle: saline) was 51 % of control, the T/C (dose: 15.0 mg/kg/injection, schedule: Q01DX007 (ip), vehicle: saline) was 62 % of control and the T/C (dose: 20.0 mg/kg/injection, schedule: Q01DX007 (ip), vehicle: saline) was 15 % of control. The T/C (dose: 30.0 mg/kg/injection, schedule: Q01DX007 (ip), vehicle: saline) was 21 % of control and the T/C (dose: 40.0 mg/kg/injection, schedule: Q01DX007 (ip), vehicle: saline) was 16 % of control.

`[N-]=[N+]=C1N=CN=C1c1ncn[nH]1` was tested, and the T/C (dose: 25.0 mg/kg/injection, schedule: Q01DX007 (ip), vehicle: carboxymethylcellulose (CMC)) was 107 % of control and the T/C (dose: 50.0 mg/kg/injection, schedule: Q01DX007 (ip), vehicle: carboxymethylcellulose (CMC)) was 69 % of control.

With `COc1cc2c3c(c4cc(OC)c(OC)cc4c2cc1OC)CN1CCC[C@H]1C3` the T/C (dose: 10.0 mg/kg/injection, schedule: Q01DX007 (ip), vehicle: water) was 70 % of control, the T/C (dose: 12.0 mg/kg/injection, schedule: Q01DX007 (ip), vehicle: water) was 81 % of control and the T/C (dose: 18.0 mg/kg/injection, schedule: Q01DX007 (ip), vehicle: water) was 42 % of control.

In the case of `Cc1cc(N(CCCl)CCCl)ccc1C=Nc1ccccc1-c1ccccc1`, the T/C (dose: 25.0 mg/kg/injection, schedule: Q01DX007 (ip), vehicle: saline) is reported as 100 % of control, the T/C (dose: 50.0 mg/kg/injection, schedule: Q01DX007 (ip), vehicle: saline) is reported as 96 % of control and the T/C (dose: 100.0 mg/kg/injection, schedule: Q01DX007 (ip), vehicle: saline) is reported as 105 % of control. The T/C (dose: 200.0 mg/kg/injection, schedule: Q01DX007 (ip), vehicle: saline) was 73 % of control.

In the case of `C[N+]1(CCC[N+]2(C)C[C@@H]3[C@H](C2)[C@@H]2C=C[C@H]3C2)CCOCC1` (stereo partly drawn), the T/C [4] is reported as 95 % of control and the T/C (dose: 500.0 mg/kg/injection, schedule: Q01DX007 (ip), vehicle: saline) is reported as 111 % of control.

For `CN(C)c1ccc(C(C#N)C(C#N)c2ccccc2)cc1` (stereo not drawn), the T/C (dose: 8.85 mg/kg/injection, schedule: Q#A X014 (ip), vehicle: methylcellulose (MC)) was 69 % of control and 84 % of control, the T/C (dose: 26.6 mg/kg/injection, schedule: Q#A X014 (ip), vehicle: methylcellulose (MC)) was 4 % of control and the T/C (dose: 40.0 mg/kg/injection, schedule: Q#A X014 (ip), vehicle: methylcellulose (MC)) was 56 % of control.

— PubChem BioAssay AID342 (DTP/NCI, 2004)
